Measurements taken from ChEMBL document CHEMBL3272282, “Adrenergic agents. 6. Synthesis and potential beta-adrenergic agonist activity of some meta-substituted p-hydroxyphenylethanolamines related to salbutamol” (J Med Chem, 1977).

Tests used:
Cavia porcellus [1] = species: Cavia porcellus; test: Agonist activity at beta-adrenoceptor in guinea pig trachea assessed as relaxation of spontaneously contracted tracheal smooth muscle; type: tissue-based
[2] = Agonist activity at beta-adrenoceptor in guinea pig atria assessed as cardiac stimulant activity by measuring change in rate of contraction of right atrial muscle; type: tissue-based, Cavia porcellus, Cardiac atrium
Cavia porcellus [3] = species: Cavia porcellus; test: Intrinsic activity at beta-adrenoceptor in guinea pig trachea assessed as relaxation of spontaneously contracted tracheal smooth muscle relative to papaverine; type: tissue-based
[4] = Intrinsic activity at beta-adrenoceptor in guinea pig atria assessed as cardiac stimulant activity by measuring change in rate of contraction of right atrial muscle relative to isoproterenol; type: ADME, tissue-based, Cavia porcellus, Cardiac atrium
[5] = Separation ratio of ED25 at beta-adrenoceptor in guinea pig atria to ED50 for beta-adrenoceptor in guinea pig trachea; parameters: species or system Cavia porcellus
[6] = Agonist activity at beta-adrenoceptor in guinea pig atria assessed as cardiac stimulant activity by measuring change in rate of contraction of right atrial muscle at 92 uM; type: tissue-based, Cavia porcellus, Cardiac atrium
[7] = Agonist activity at beta-adrenoceptor in guinea pig atria assessed as cardiac stimulant activity by measuring change in rate of contraction of right atrial muscle at 0.12 mM; type: tissue-based, Cavia porcellus, Cardiac atrium; details: 120 µM
Cavia porcellus [8] = species: Cavia porcellus; test: Agonist activity at beta-adrenoceptor in guinea pig trachea assessed as relaxation of spontaneously contracted tracheal smooth muscle at 11 uM; type: tissue-based; parameters: scale not given: the % may be the effect or the level left
[9] = Agonist activity at beta-adrenoceptor in guinea pig atria assessed as cardiac stimulant activity by measuring change in rate of contraction of right atrial muscle at 56 uM; type: tissue-based, Cavia porcellus, Cardiac atrium
Cavia porcellus [10] = species: Cavia porcellus; test: Agonist activity at beta-adrenoceptor in guinea pig trachea assessed as relaxation of spontaneously contracted tracheal smooth muscle at 12 uM; type: tissue-based; parameters: scale not given: the % may be the effect or the level left
[11] = Agonist activity at beta-adrenoceptor in guinea pig atria assessed as cardiac stimulant activity by measuring change in rate of contraction of right atrial muscle at 14 uM; type: tissue-based, Cavia porcellus, Cardiac atrium
[12] = Agonist activity at beta-adrenoceptor in guinea pig atria assessed as cardiac stimulant activity by measuring change in rate of contraction of right atrial muscle at 0.11 mM; type: tissue-based, Cavia porcellus, Cardiac atrium; details: 110 µM

SMILES	ED50 (Cavia porcellus [1])	ED25 [2]	Ratio (Cavia porcellus [3])	Ratio [4]	Ratio [5]	Activity [6]	Activity [7]	Activity (Cavia porcellus [8])	Activity [9]	Activity (Cavia porcellus [10])	Activity [11]	Activity [12]
CC(C)(C)NCC(O)c1ccc(O)c(O)c1 (configuration not stated) [COLTEROL]	1.3 nM	7.1 nM	1	1	5.5							
CC(C)NCC(O)c1ccc(O)c(O)c1 (configuration not stated) [ISOPROTERENOL]	7.1 nM		1									
CC(O)c1cc(C(O)CNC(C)(C)C)ccc1O (configuration not stated)	1.8 ×10⁻⁸ M	5200 nM	1	0.3	289							
CC(C)(C)NCC(O)c1ccc(O)c(C(O)CNC(C)(C)C)c1 (configuration not stated)	1.5 ×10⁻⁵ M	9.2 ×10⁻⁵ M	0.9		>6	14%						
CC(C)(C)NCC(O)c1ccc(O)c(CO)c1 (configuration not stated) [ALBUTEROL]	1.1 ×10⁻⁸ M		1	0.7	28							
CC(C)(C)NCC(O)c1ccc(O)c(C(O)CO)c1 (configuration not stated)	9.9 ×10⁻⁸ M	3 ×10⁻⁵ M	1	0.3	303							
COCC(O)c1cc(C(O)CNC(C)(C)C)ccc1O (configuration not stated)	5.3 ×10⁻⁷ M	1.2 ×10⁻⁴ M	0.9		236		23%					
CC(C)(C)NCC(O)c1ccc(O)c(C(C)(C)O)c1 (configuration not stated)	1.1 ×10⁻⁵ M							30%	8%			
CC(C)(C)NCC(O)c1ccc(O)c(C(O)CS(C)(=O)=O)c1 (configuration not stated)	1.2 ×10⁻⁵ M	1.4 ×10⁻⁵ M								34%	0%	
COC(CO)c1cc(C(O)CNC(C)(C)C)ccc1O (configuration not stated)	3.4 ×10⁻⁷ M		0.7		>320							0%
